Laboratory results as given in patent US20120283096A1, “AGENT FOR IMPROVING PLANT GROWTH, SEEDS, AND METHOD FOR IMPROVING PLANT GROWTH” (Incorporated Administrative Agency National Agricu lture …, priority 2010, published 2012).

Experiments:
decay of paddy seeds = test: Decay-inhibiting effect in tank farming without soil (Example 3); conditions: seeds covered with substance, soaked two weeks in water at 30° C.
Method: (§1) The decay-inhibiting effect of molybdenum-containing substances in tank farming without soil was examined.
(§2) The possibility of growth and the inhibition of decay were determined in the same manner as above.

barley = test: Seedling establishment of barley seeds in humid soil (Example 6-1, FIG. 20a); type: in vivo; conditions: 0.01 mmol to 0.5 mmol molybdenum per gram of dry seed, 20° C., after two weeks
Method: (§3) As in Example 4-1, ammonium sulfate in an equivalent amount of 10 g/m^2 in terms of nitrogen and potassium chloride equivalent to 5 g/m^2 of potassium as potassium oxide were added as a solution to paddy humid soil in terms of 100 kg/m^2 of dry soil with a soil-to-liquid ratio of 0.7. The soil was placed into each container (in the shape of a cylinder approximately 7 cm in diameter) in an amount equivalent to 100 g of dry soil. The soil surface was flattened by giving it a slight press with a flat plate. Then, the soil was left at rest for one day at 4° C. […] The seeds were then half-buried in the soil. After that, at a constant temperature of 20° C., the water level was kept by adding water to such an extent that the seeds were slightly covered with water. Six containers were allotted for each condition, and the proportion of seedling establishment (proportion of individual plants that survived) was measured after two weeks. It should be noted that in each of FIGS. 20a and 20b, the horizontal axis represents the number of moles (mmol) of molybdenum that adhered per gram of dry seed. In each of FIGS. 20a and 20b, the dots correspond to the numbers of moles of 0, 0.01, 0.02, 0.05, 0.1, 0.2, and 0.5 mmol, starting from the left. […]

wheat = test: Seedling establishment of wheat seeds in humid soil (Example 6-1, FIG. 20b); type: in vivo; conditions: 0.01 mmol to 0.5 mmol molybdenum per gram of dry seed, 20° C., after two weeks
Method: as §3

paddy rice [1] = test: Seedling establishment of coated paddy seeds planted in a paddy field (Example 4-5, FIG. 22); type: in vivo; conditions: dry seeds coated with clay plus 0.1 mmol/g molybdenum; kept submerged, about one month after seeding; versus WITHOUT MATERIAL and oxygen generating agent (Cal)
Method: Dry paddy seeds (branded as Hinohikari) were prepared.
Separately, dry seeds (WITHOUT MATERIAL) coated solely with clay containing no molybdenum were also prepared. Furthermore, dry seeds (Cal) coated with an oxygen generating agent (Calper Powder 16, Hodogaya UPL Co., Ltd.) the same weight per dry seeds were also prepared. Calper Powder 16 is an oxygen generating agent composed mainly of calcium peroxide.
These dry seeds were planted in puddled soil in a paddy field in Chikugo City, Fukuoka Prefecture, by using a simultaneous puddling and planting point sowing machine. By preparing the seeds as described above and planting them by using a point sowing machine, the amount of seeding per unit area of the paddy field can be substantially uniformed. It should be noted that prior to soil puddling, 4 g/m^2 of ammonium sulfate as nitrogen and potassium sulfate containing potassium equivalent to 8 g/m^2 as potassium oxide had been applied to the paddy field. After seeding, the seeds were kept submerged without draining the water.

paddy seeds = test: Possibility of growth of paddy seeds in tank farming without soil (Example 3); conditions: in vivo
Method: as §1, §2

soybean = test: Seedling establishment of soybean seeds submerged for two days (Example 6a-1, FIG. 20e); type: in vivo; conditions: 0.01 mmol to 0.5 mmol molybdenum per gram of dry seed, 25° C., versus untreated seeds
Method: Soil was prepared in the same manner as in Example 6-1. Next, soybean seeds (branded as Fukuyutaka) not subjected to treatment such as soaking in advance were soaked for one minute in a tenfold diluted solution of a commercially available laundry starch (manufactured by Rocket Soap Co., Ltd.; My Laundry Starch) containing approximately a little less than 10% by weight of polyvinyl alcohol. Then, the seeds were spin-dried for thirty seconds in a commercially available washing machine for removal of the extra water. […] These seeds were buried so that the upper edge of each seed was at the same height as the soil surface. In an artificially-lit (amount of light 0.4 mmol/m^2/s, lit for twelve hours per day) room at 25° C., water was added immediately after seeding so that the surface water was 15 mm high. After two days, the surface water was sucked up with a pipette for removal. Six containers were allotted for each condition, and the proportion of seedling establishment (proportion of individual plants that survived) was measured two weeks after seeding. It should be noted that in FIG. 20e, the horizontal axis represents the number of moles (mmol) of molybdenum that adhered per gram of dry seed. In FIG. 20e, the dots correspond to the numbers of moles of 0 (UNTREATED), 0.01, 0.02, 0.05, 0.1, 0.2, and 0.5 mmol, starting from the left. […]

paddy rice [2] = test: Seedling establishment of coated paddy seeds in submerged soil containers (Examples 4-1 to 4-4b, FIGS. 11, 14-19c); type: in vivo
Method: The germinated paddy seeds were soaked for one minute in a tenfold diluted solution of a commercially available laundry starch (manufactured by Rocket Soap Co., Ltd.; My Laundry Starch) containing approximately a little less than 10% by weight of polyvinyl alcohol, centrifuged at 1000 rpm for removal of the extra solution, and, immediately after that, lightly covered with different amounts of ammonium molybdophosphate, whereby seeds with different amounts of ammonium molybdophosphate were prepared.
It should also be noted that in each of FIGS. 14 through 15b, the horizontal axis represents the number of moles (mmol) of molybdenum or tungsten that adhered per gram of dry seed. In each of FIGS. 14 through 15b, the dots correspond to the numbers of moles of 0, 0.02, 0.05, 0.1, 0.2, 0.5, 1, and 2 mmol, starting from the left.
It should be noted that in each of FIGS. 16 through 18, the horizontal axis represents the number of moles (mmol) of molybdenum that adhered per gram of dry seed. In each of FIGS. 16 through 18, the dots correspond to the numbers of moles of 0, 0.02, 0.05, 0.1, 0.2, 0.5, 1, and 2 mmol, starting from the left.
It should be noted that in FIG. 19a, the horizontal axis represents the number of moles (mmol) of molybdenum that adhered per gram of dry seed. In FIG. 19a, the dots correspond to the numbers of moles of 0, 0.02, 0.05, 0.1, 0.2, 0.5, 1, and 2 mmol, starting from the left.
The resulting seeds were allowed to spend time in a sufficiently wet condition so that the iron rusted, and then allowed to further spend overnight. […] Six containers were allotted for each condition, and the proportion of seedling establishment and the standard error were examined. It should be noted that in FIG. 19b, the horizontal axis represents the number of moles (mmol) of molybdenum that adhered per gram of dry seed. In FIG. 19b, the dots correspond to the numbers of moles of 0, 0.02, 0.05, 0.1, 0.2, 0.5, 1, and 2 mmol, starting from the left.
Six containers were allotted for each condition, and the proportion of seedling establishment and the standard error were examined. It should be noted that in FIG. 19c, the horizontal axis represents the actual weight ratios of 25 wt % calcium peroxide that adhered with respect to the weight of dry seed. In FIG. 19c, the dots correspond to the actual weight ratios of 25 wt % calcium peroxide of 0, 0.01, 0.02, 0.05, 0.1, 0.2, 0.5, and 1 time, starting from the left.

paddy rice [3] = test: Effect of sulfate ions in paddy soil on seedling establishment (Example 1-1, FIG. 1); type: in vivo
Method: The effect of concentrations of sulfate ions, which serve as a substrate for sulfide ions, in the soil solution on the percentage of seedling establishment were examined for each of the following cases: unsterilized paddy soil placed at a constant temperature of 20° C.; unsterilized paddy soil placed at a constant temperature of 30° C., unsterilized paddy soil placed in an outdoor location (at a mean temperature of 25.4° C. for the duration of examination); and sterilized paddy soil placed at a constant temperature of 20° C.
First, ammonium sulfate solutions in different concentrations were added to samples of paddy humid soil (obtained from a paddy field in Chikugo City, Fukuoka Prefecture, Japan; refrigerated in the form of humid soil until just before its use) with a soil-to-liquid ratio of 1:1.5, so that the resulting supernatant liquids above the samples of soil thus adjusted had varying concentrations of sulfate ions. The amounts of ammonium sulfate added to the samples of soil were equivalent to 0, 2, 4, 7, 10, 15, and 20 g/m^2 in terms of nitrogen, respectively, on the condition that the weight of dry soil is 100 kg/m^2. At the same time as ammonium sulfate, potassium in an amount of 5 g/m^2 in terms of potassium oxide was added as potassium chloride. Before the addition of the solutions to the samples of soil, some of the soil had been sterilized by being autoclaved for one hour at 121° C.
Each of the samples of soil thus adjusted was placed into a container (in the shape of a cylinder approximately 7 cm in diameter) in an amount equivalent to 120 g of dry soil, shaken for approximately one hour, and left at rest for two days at 4° C. On this condition, the resulting soil layer was approximately 4 cm thick and the resulting water layer above the soil surface was approximately 1 cm thick. Paddy rice seeds (branded as Hinohikari) were sterilized by being soaked in 70% ethanol for ten minutes and then in a fivefold diluted solution of sodium hypochlorite (purchased from Wako Pure Chemical Industries, Ltd.) for ten minutes. The paddy rice seeds were then slightly germinated by being soaked in water at 10° C. for five days and then in water at 30° C. for two days. The germinated unhusked rice thus obtained was used in the following testing.
Nine paddy rice seeds per container were planted at a depth of 15 mm at intervals of approximately 2 cm in each of the samples of soil thus adjusted, and the seed holes were closed by lightly shaking the sample of soil. The samples of unsterilized soil were left at rest at a constant temperature of 20° C. or 30° C., and the samples of sterilized soil were left at a constant temperature of 20° C. in incubators in which fluorescent lights were on for twelve hours per day. […]

sulfide ion generation = test: Blackening (ferric sulfide) of areas around paddy seeds versus sulfate ion concentration (FIG. 2); conditions: unsterilized soil, 30° C., one week after seeding, supernatant concentration
Method: In the same manner as above, ammonium sulfate was applied to samples of unsterilized soil in amounts of 0, 0.75, 1.5, and 3 mol/m^2, respectively, and the samples of unsterilized soil were placed at rest at a constant temperature of 30° C. The supernatant liquids obtained after shaking the samples of soil thus adjusted had sulfate ion concentrations shown in FIG. 2. However, since methylene blue decolorizes in a reduced state, methylene blue weighing 0.1% of dry soil was added to each sample of soil so that a reduced state of the soil could be detected. […] It should be noted that methylene blue is known to decolorize at an oxidation-reduction potential of 0.05 V or lower with a pH of approximately 6. […] Therefore, it is judged that in this experimental environment, an oxidation-reduction potential as normalized with a pH of 7 is at least temporarily 0 mV or lower.

SMILES	Inhibition of decay, Amount of molybdenum or tungsten added to seed (decay of paddy seeds)	proportion of seedling establishment (barley)	proportion of seedling establishment (wheat)	seedling establishment (paddy rice [1])	Possibility of growth, Amount of molybdenum or tungsten added to seed (paddy seeds)	proportion of seedling establishment (soybean)	molybdenum amount leading to improvements in seedling establishment (paddy rice [2]; dry seeds coated with mixture with reduced iron (half the weight of dry seeds), 30° C., FIG. 19b)	proportion of seedling establishment (paddy rice [2]; dry seeds, mixture of 0.1 mmol/g molybdenum oxide and 25 wt % calcium peroxide at 0.1 or less time the weight of dry seed, 30° C.)	proportion of seedling establishment (paddy rice [2]; mixture of 0.1 mmol/g molybdenum oxide and 25 wt % calcium peroxide at 0.2 to 0.5 time the weight of dry seed, versus absence of molybdenum oxide)	seedling establishment (paddy rice [3]; sterilized soil, 20° C., regardless of sulfate ion concentration)	seedling establishment (paddy rice [3]; unsterilized soil, constant 20° C., sulfate ion concentration higher than 2 mM, after 21 days)	proportion of seedling establishment (paddy rice [3]; unsterilized soil, constant 30° C. or outdoor, sulfate ion concentration higher than 3 mM, after 21 days)	proportion of seedling establishment (paddy rice [3]; unsterilized soil, sulfate ion concentration of 1 mM, regardless of the conditions (20° C., 30° C., outdoor), after 21 days)	sulfate ion concentration at which a blackened portion (ferric sulfide) appears around the seed (sulfide ion generation)
[O]=[Mo](=[O])=[O] [Molybdenum oxide, Molybdenum oxide (VI)]	<0.01 mmol/g	improvements in proportion of seedling establishment	improvements in proportion of seedling establishment	obvious improvements in seedling establishment	0.07 mmol/g	improvements in proportion of seedling establishment	≥ 0.5 mmol/g	≥ 40%	higher proportion of seedling establishment					
N.N.O=S(=O)(O)O [sulfate ions, ammonium sulfate]										no decrease in seedling establishment	substantially no seedling establishment	≤ 10%	drastic decreases in proportion of seedling establishment	≥ 0.91 mM
